Results from US7544689B2, “Purine derivatives” (Cyclacel Limited, priority 2002, dated 2009).

Columns and labels:
CDK2/cyclin E = biological target: T1, CDK2/cyclin E (Homo sapiens, UniProt P24941); experiment: Kinase assay, CDK2/cyclin E inhibition; assay type: biochemical
T1 construct: His6; made in house; host or cells: Sf9 insect cells (baculovirus)
Protocol: (§1) Recombinant cyclin DI was expressed in E. coli. Proteins were purified by metal chelate affnity chromatography to greater than 90% homogeneity. […] Reactions were stopped on ice, followed by filtration through p81 filterplates or GF/C filterplates (for CDK4) (Whatman Polyfiltronics, Kent, UK), except for CDK7 where, after stopping reaction on ice, 10 μL of 10 mg/mL avidin was added to each well and further incubated for 10 min followed by filtration as per CDK2 assay. After washing 3 times with 75 mM aq orthophosphoric acid, plates were dried, scintillant added and incorporated radioactivity measured in a scintillation counter (TopCount, Packard Instruments, Pangbourne, Berks, UK). Compounds for kinase assay were made up as 10 mM stocks in DMSO and diluted into 10% DMSO in assay buffer.

CDK1/cyclin B = biological target: T2, CDK1/cyclin B (Homo sapiens, UniProt P06493); experiment: Kinase assay, CDK1/cyclin B inhibition; assay type: biochemical
T2 construct: His6; made in house; host or cells: Sf9 insect cells (baculovirus)
Protocol: as §1

CDK4/cyclin D1 = biological target: T3, CDK4/cyclin D1 (Homo sapiens, UniProt P11802); experiment: Kinase assay, CDK4/cyclin D1 inhibition; assay type: biochemical
T3 construct: His6; made in house; host or cells: CDK4: Sf9 insect cells (baculovirus); cyclin D1: E. coli
Protocol: as §1

CDK7/cyclin H = biological target: T4, CDK7/cyclin H (Homo sapiens, UniProt P50613); experiment: Kinase assay, CDK7/cyclin H inhibition; assay type: biochemical
T4 construct: His6; made in house; host or cells: Sf9 insect cells (baculovirus)
Protocol: as §1

[1] = biological target: T5, cyclic AMP-dependent kinase (PKA) catalytic subunit (Homo sapiens, UniProt P17612); experiment: Kinase assay, PKA inhibition; assay type: biochemical
T5 construct: purchased Calbiochem 539487
Protocol: as §1

ERK2 = biological target: T6, ERK2 (Homo sapiens, UniProt P28482); experiment: Kinase assay, ERK-2 inhibition; assay type: biochemical
T6 construct: purchased Upstate Biotechnology
Protocol: Reactions were stopped on ice, followed by filtration through p81 filterplates or GF/C filterplates (for CDK4) (Whatman Polyfiltronics, Kent, UK), except for CDK7 where, after stopping reaction on ice, 10 μL of 10 mg/mL avidin was added to each well and further incubated for 10 min followed by filtration as per CDK2 assay. After washing 3 times with 75 mM aq orthophosphoric acid, plates were dried, scintillant added and incorporated radioactivity measured in a scintillation counter (TopCount, Packard Instruments, Pangbourne, Berks, UK). Compounds for kinase assay were made up as 10 mM stocks in DMSO and diluted into 10% DMSO in assay buffer.

[2] = tested on: Human tumour cell lines: A549, HT29, Saos-2; experiment: 72-h MTT cytotoxicity assay; assay type: cell-based; conditions: for IC50: read-out: In vitro anti-proliferative activity (72 h MTT IC50), 72 h MTT, human tumour cell lines A549, HT29, Saos-2
Protocol: In short: cells were seeded into 96-well plates according to doubling time and incubated overnight at 37° C. Test compounds were made up in DMSO and a 1/3 dilution series prepared in 100 μL cell media, added to cells (in triplicates) and incubated for 72 ho at 37° C. MTT was made up as a stock of 5 mg/mL in cell media and filter-sterilised. Media was removed from cells followed by a wash with 200 μL PBS. MTT solution was then added at 20 μL per well and incubated in the dark at 37° C. for 4 h. MTT solution was removed and cells again washed with 200 μL PBS. MTT dye was solubilised with 200 μL per well of DMSO with agitation.

[3] = Comparative in vitro metabolism assay (microsomal incubation); conditions: for % Drug after 30 min. microsomal incubation: 10 μM compound, 0.2 mg microsomal protein, NADPH; for A: % Compound remaining/% roscovitine remaining: ratio to roscovitine, 30 min microsomal incubation
Protocol: Calibration curves were prepared at 0, 1, and 10 μM in microsomes pre-incubated for 30 min and these were also treated with methanol containing olomoucine. All samples were then centrifuged and the supernatants analysed by liquid chromatography-mass spectrometry.
The chromatography column was a Supelco LC-ABZ, 50×4.6 mm, 5 μm zwitterionic column (Supelco Inc., Supelco Park, Bellefonte, Pa., USA). Gradient eluants consisted of methanol (A) and 0.1% formic acid in water (B). […] The flow rate was 1 mL/min throughout. […] Eluant from the detector passed, without splitting, into a Thermoquest LCQ ion trap mass spectrometer fitted with an electrospray source operated in positive mode. Mass spectrometer conditions were sheath gas 80, auxiliary gas 20 (both arbitrary units), capillary voltage 4 to 4.5 kV and heated capillary temperature 250 to 280° C. The mass range was 50-750. Scan time was controlled by the ion trap which was set to a maximum ion injection-time of 200 ms or the time required to inject 2×10^8 ions; for each scan the system automatically used whichever time was reached first.

[4] = tested on: representative panel of human transformed tumour cell lines; experiment: Average anti-proliferative activity in tumour cell line panel; assay type: cell-based; conditions: average over representative panel of human transformed tumour cell lines

T6 sequence (P28482 whole entry, species assumed): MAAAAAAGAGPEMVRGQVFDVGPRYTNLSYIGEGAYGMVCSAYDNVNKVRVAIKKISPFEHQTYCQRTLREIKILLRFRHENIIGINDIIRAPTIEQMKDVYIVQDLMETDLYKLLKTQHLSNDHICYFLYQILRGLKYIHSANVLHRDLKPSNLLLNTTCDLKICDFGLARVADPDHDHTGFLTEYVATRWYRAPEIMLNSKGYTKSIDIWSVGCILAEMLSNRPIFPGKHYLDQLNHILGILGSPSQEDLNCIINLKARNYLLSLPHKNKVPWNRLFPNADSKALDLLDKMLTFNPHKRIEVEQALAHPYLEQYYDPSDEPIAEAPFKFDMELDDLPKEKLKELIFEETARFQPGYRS
T2 sequence (P06493 whole entry): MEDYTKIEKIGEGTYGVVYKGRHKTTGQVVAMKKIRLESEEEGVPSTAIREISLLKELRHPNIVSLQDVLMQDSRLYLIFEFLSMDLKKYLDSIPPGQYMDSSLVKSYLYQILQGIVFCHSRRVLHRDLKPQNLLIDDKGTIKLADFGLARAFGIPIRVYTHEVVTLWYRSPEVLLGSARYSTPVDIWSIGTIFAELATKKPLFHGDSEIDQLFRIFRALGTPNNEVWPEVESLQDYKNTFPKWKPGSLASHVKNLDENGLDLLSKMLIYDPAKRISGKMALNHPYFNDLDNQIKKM
T2 sequence (P14635 whole entry partner): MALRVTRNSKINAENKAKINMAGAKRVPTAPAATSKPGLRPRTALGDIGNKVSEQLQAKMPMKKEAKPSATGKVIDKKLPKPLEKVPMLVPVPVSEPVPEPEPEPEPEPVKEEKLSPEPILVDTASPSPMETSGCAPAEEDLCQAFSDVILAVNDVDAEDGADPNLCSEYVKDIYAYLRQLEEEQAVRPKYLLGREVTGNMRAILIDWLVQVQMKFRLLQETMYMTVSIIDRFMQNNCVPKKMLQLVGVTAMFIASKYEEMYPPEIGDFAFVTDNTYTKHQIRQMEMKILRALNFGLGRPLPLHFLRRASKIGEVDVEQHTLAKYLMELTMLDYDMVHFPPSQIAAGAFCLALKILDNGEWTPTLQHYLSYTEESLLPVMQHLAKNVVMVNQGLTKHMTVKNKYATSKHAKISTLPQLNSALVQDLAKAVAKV
T4 sequence (P50613 whole entry): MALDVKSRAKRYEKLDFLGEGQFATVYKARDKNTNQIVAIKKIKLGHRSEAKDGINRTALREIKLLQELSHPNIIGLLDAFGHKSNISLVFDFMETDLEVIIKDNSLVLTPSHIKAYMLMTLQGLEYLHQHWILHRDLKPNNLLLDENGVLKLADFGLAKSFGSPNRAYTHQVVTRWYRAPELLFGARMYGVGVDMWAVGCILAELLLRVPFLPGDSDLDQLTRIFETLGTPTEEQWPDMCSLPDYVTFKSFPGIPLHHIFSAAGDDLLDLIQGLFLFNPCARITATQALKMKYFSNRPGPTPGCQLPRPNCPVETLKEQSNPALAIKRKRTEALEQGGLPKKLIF
T4 sequence (P51946 whole entry partner): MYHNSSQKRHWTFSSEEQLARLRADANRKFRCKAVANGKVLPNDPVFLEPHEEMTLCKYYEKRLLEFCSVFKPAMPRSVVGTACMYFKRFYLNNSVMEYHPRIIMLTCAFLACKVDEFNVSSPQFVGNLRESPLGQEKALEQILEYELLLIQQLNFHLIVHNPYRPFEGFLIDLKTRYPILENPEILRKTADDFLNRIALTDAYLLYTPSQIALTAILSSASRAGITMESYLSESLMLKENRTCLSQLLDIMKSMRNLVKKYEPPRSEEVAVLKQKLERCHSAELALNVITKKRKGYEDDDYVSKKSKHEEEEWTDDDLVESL
T3 sequence (P11802 whole entry): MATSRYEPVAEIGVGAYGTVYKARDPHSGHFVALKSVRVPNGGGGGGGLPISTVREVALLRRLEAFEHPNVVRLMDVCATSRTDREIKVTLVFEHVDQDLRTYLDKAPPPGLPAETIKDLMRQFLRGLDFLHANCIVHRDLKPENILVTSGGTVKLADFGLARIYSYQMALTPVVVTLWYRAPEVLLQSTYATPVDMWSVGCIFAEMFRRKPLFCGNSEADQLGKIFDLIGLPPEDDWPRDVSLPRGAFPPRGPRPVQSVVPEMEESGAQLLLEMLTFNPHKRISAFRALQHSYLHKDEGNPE
T3 sequence (P24385 whole entry partner): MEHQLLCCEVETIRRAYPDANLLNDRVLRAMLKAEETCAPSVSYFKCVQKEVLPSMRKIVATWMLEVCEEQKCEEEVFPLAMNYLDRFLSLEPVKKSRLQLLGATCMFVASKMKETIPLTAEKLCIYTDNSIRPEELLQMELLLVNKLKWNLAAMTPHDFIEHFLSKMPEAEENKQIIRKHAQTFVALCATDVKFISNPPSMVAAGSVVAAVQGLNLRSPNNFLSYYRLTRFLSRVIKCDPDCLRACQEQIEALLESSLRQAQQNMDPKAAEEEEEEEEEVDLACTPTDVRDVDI

Structure (SMILES) | IC50 (CDK2/cyclin E) [µM] | IC50 (CDK1/cyclin B) [µM] | IC50 (CDK4/cyclin D1) [µM] | IC50 (CDK7/cyclin H) [µM] | IC50 [1] [µM] | IC50 (ERK2) [µM] | IC50 [2] [µM] | A × B (CDK2/cyclin E; comparative in vitro efficacy: metabolism ratio × CDK2 ratio) | B: IC50 CDK2 roscovitine/IC50 CDK2 compound (CDK2/cyclin E; ratio to roscovitine) | C: IC50 cytotox. roscovitine/IC50 cytotox. compound ([2]; ratio to roscovitine) | % Drug after 30 min. microsomal incubation [3] [%] | A: % Compound remaining/% roscovitine remaining [3] | IC50 [4] [µM]
CC[C@@H](Nc1nc(NCc2ccccn2)c2ncn(C(C)C)c2n1)C(O)C(C)(C)C (mixture of isomers) [(3RS,4R)-4-{9-Isopropyl-6-[(pyridin-2-ylmethyl)-amino]-9H-purin-2-ylamino}-2,2-dimethyl-hexan-3-ol] | 2.8 | > 200 | 38 | 2.4 | > 200 | > 200 | 38 |  |  |  |  |  | 
CC[C@@H](Nc1nc(NCc2ccccn2)c2ncn(C(C)C)c2n1)C(O)C(C)C (mixture of isomers) [(3RS,4R)-4-{9-Isopropyl-6-[(pyridin-2-ylmethyl)-amino]-9H-purin-2-ylamino}-2-methyl-hexan-3-ol] | 3.4 | 84 | 32 | 3.9 | > 200 | > 200 | 23 |  |  |  |  |  | 
CCC(O)[C@@H](CC)Nc1nc(NCc2ccccn2)c2ncn(C(C)C)c2n1 (mixture of isomers) [(3RS,4R)-4-{9-Isopropyl-6-[(pyridin-2-ylmethyl)-amino]-9H-purin-2-ylamino}-hexan-3-ol] | 0.77 | 35 | 20 | 1.2 | > 200 | 230 | 19 |  |  |  |  |  | 
CC[C@H](Nc1nc(NCc2ccccn2)c2ncn(C(C)C)c2n1)C(O)C(C)(C)C (mixture of isomers) [(3RS,4S)-4-{9-Isopropyl-6-[(pyridin-2-ylmethyl)-amino]-9H-purin-2-ylamino}-2,2-dimethyl-hexan-3-ol] | 1 | > 200 | 22 | 5.8 | > 200 | 137 | 33 |  |  |  |  |  | 
CC[C@H](Nc1nc(NCc2ccccn2)c2ncn(C(C)C)c2n1)C(O)C(C)C (mixture of isomers) [(3RS,4S)-4-{9-Isopropyl-6-[(pyridin-2-ylmethyl)-amino]-9H-purin-2-ylamino}-2-methyl-hexan-3-ol] | 3.1 | > 200 | 49 | 3.3 | > 200 | > 200 | 26 |  |  |  |  |  | 
CCC(O)[C@H](CC)Nc1nc(NCc2ccccn2)c2ncn(C(C)C)c2n1 (mixture of isomers) [(3RS,4S)-4-{9-Isopropyl-6-[(pyridin-2-ylmethyl)-amino]-9H-purin-2-ylamino}-hexan-3-ol] | 0.42 | 40 | 24 | 2.6 | > 200 | 80 | 27 |  |  |  |  |  | 
CC[C@H](Nc1nc(NCc2ccccn2)c2ncn(C(C)C)c2n1)[C@@H](C)O [(2R3S)-3-{9-Isopropyl-6-[(pyridin-2-ylmethyl)-amino]-9H-purin-2-ylamino}-pentan-2-ol] | 0.05 | 8.9 | 18 | 2.6 | > 200 | 77 | 9.8 | 1.9 | 1.9 | 1.2 | 33 | 1.0 | 
CC[C@@H](Nc1nc(NCc2ccccn2)c2ncn(C(C)C)c2n1)[C@H](C)O [(2S3R)-3-{9-Isopropyl-6-[(pyridin-2-ylmethyl)-amino]-9H-purin-2-ylamino}-pentan-2-ol] | 0.52 | 39 | 48 | 0.55 | > 200 | 73 | 12 |  |  |  |  |  | 
CC[C@@H](Nc1nc(NCc2ccccn2)c2ncn(C(C)C)c2n1)C(C)(C)O [(3R)-3-{9-Isopropyl-6-[(pyridin-2-ylmethyl)-amino]-9H-purin-2-ylamino}-2-methyl-pentan-2-ol] | 0.48 | 44 | 18 | 4.2 | > 200 | > 200 | 35 |  |  |  |  |  | 
CC[C@H](CO)Nc1nc(NCc2ccccc2)c2ncn(C(C)C)c2n1 [Roscovitine, reference compound] |  |  |  |  |  |  |  |  |  |  | 33 | 1.0 | 
CC[C@@H](Nc1nc(NCc2ccccc2)c2ncn(C(C)C)c2n1)C(=O)O [carboxyl derivative, (2R)-2-(6-Benzylamino-9-isopropyl-9H-purin-2-ylamino)-butyric acid] |  |  |  |  |  |  |  |  |  |  |  |  | > 50
